Results published in patent US8338423B2, “Compositions for the treatment of hyperphenylalaninemia” (Universidad de Zaragoza, priority 2007, dated 2012).

Columns and labels:
[1] = Solubility in dosing stocks and final solutions; type: physicochemical; details: 50 mg/ml in 100% DMSO stock and 5 mg/ml in 10% DMSO and 10% glucose
Experimental: (§1) Solutions of Compounds 11 and Compound 13 were prepared at concentrations of 5 mg/ml (14 mM) in 10% DMSO and 10% glucose. For that, stocks of 50 mg/ml (140 mM) of each compound in 100% DMSO were diluted 1:10 with a 10% glucose solution. Both the stocks and the final solutions of Compounds 11 and 13 are in fact suspensions since the compound is not soluble al these conditions.

PAH = target: T1, PAH (Mus musculus, UniProt P16331); experiment: Hepatic PAH activity in mice after oral treatment; type: in vivo; details: oral about 5.9 mg/kg/day for 10 days; for measured PAH activity: liver extract, control group 1.27±0.63
T1 construct: Liver homogenates were prepared at 4° C; from tissue; host or cells: liver of C57Bl/6 mice
T1 sequence (P16331 1-453): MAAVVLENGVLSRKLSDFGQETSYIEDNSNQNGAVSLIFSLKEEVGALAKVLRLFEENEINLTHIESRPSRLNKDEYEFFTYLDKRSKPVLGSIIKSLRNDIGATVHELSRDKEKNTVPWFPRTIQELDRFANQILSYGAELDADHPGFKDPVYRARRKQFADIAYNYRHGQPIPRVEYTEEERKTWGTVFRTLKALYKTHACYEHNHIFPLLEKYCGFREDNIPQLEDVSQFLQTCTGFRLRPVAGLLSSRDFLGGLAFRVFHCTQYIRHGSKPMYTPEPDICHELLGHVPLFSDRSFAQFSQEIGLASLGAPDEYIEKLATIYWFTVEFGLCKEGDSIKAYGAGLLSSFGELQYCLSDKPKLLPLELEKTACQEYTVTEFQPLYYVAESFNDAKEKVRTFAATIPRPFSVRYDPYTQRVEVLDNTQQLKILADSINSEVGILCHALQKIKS
Experimental: as §1
Animal experiments were performed by Beat Töny (University of Zurich Children's Hospital). 25 μl/day of 10% DMSO (Group 1, control) or the solutions of Compound 11 (Group 2) or Compound 13 (Group […]) were administered orally for 10 days to young adult C57BI/6 mice (all females) exactly 12 weeks old and with weight between 19 to 23 g were in each group, i.e. in Group 2 and 3 animals were given about 5.9 mg/kg/day. Five animals were treated in each group, and no weight change was experienced upon treatment, i.e. <5% change between start and end. Animals were sacrificed at day 10 of treatment, and their livers were sectioned in two frozen immediately in liquid nitrogen, then the frozen half-livers were sent to the Department of Biomedicine, University of Bergen in dry ice. Liver homogenates were prepared at 4° C. in presence of dithiothreitol (DTT) and the protease inhibitors phenylmethylsulfonyl fluoride, leupeptin, and pepstatin as described, Elzaouk L, et al. J Biol Chem 2003; 278(30):28303-11. After homogeneization the extracts were clarified by centrifugation al 170,000 g for 30 min at 4° C.
The concentration of soluble protein was about 35 mg/ml of liver extract, similar in each group. The hepatic PAH response to oral supplementation of DMSO and of Compounds 11, 13 in 10% DMSO was analyzed b determining: • i) PAH activity, as described, after removal of free amino acids and contaminants of low molecular weight by using Zebra™ Desalt Spin columns(Pierce). • ii) Pah-mRNA expression by quantitative real-time PCR analysis, performed as reported

wt-PAH = target: T2, wt-PAH (Homo sapiens, UniProt P00439); experiment: Quenching of PAH Trp-emission fluorescence; type: binding; details: apparent affinity, data not shown; read-out: ligand concentration inducing a 50% decrease in Trp-fluorescence
T2 construct: made in house; host or cells: E. coli
T2 sequence (P00439 1-452): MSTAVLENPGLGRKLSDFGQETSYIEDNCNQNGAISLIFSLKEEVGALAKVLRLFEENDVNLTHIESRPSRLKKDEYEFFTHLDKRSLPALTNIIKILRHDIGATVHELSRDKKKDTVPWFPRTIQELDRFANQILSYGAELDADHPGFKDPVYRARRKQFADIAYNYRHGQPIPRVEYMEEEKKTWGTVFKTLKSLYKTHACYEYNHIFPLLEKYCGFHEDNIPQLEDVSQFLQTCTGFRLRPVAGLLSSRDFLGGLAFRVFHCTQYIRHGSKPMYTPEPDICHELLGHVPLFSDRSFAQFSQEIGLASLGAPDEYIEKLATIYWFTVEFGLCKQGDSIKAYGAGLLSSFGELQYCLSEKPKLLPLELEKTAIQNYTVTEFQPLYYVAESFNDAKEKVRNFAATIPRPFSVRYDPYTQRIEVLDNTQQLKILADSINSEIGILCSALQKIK
Experimental: As expected, the stabilizing effect was concentration dependent for all four of them, being significant at 25 μM for compounds 11 and 13 (FIG. 2). […] The apparent affinities of wt-PAH for these four ligands were further studied by monitoring quenching effects of these ligands on PAH Trp-emission fluorescence (not shown). Ligands 11 and 13 induced significant fluorescence quenching, inducing a 50% decrease in Trp-fluorescence at ˜30 and ˜3 μM for ligands 11 and 13, respectively.

Row | solubility [1] | measured PAH activity (PAH) | increase in PAH activity (PAH; liver, C57BI/6 mice) [fold] | EC50 (wt-PAH) [µM] | increase in PAH activity (significance) (PAH; liver) | Structure (SMILES)
1 | not soluble | 2.2±0.78 | 1.65 | ~30 | – | Nc1c(-c2ccc3ccccc3n2)c2ccc([N+](=O)[O-])cc2c(=O)n1Cc1ccccc1 [Compound 11, 3-amino-2-benzyl-7-nitro-4-(2-quinolyl)-1,2-dihydroisoquinolin-1-one]
2 | not soluble | 1.41±0.54 | – | ~3 | not significant | Cc1ccnc(-n2c(=S)[nH]c3sc(C)c(C)c3c2=O)c1 [Compound 13, 5,6-dimethyl-3-(4-methyl-2-pyridinyl)-2-thioxo-2,3 dihydrothieno[2,3-d]pyrimidin-4(1H)-one]
